{"source": "paper PMC6834077", "about": "“The evolving story of AtzT, a periplasmic binding protein” (Acta Crystallographica. Section D, Structural Biology, 2019)", "target": "AtzT (Pseudomonas sp. (strain ADP), UniProt Q936X6)", "sequence (Q936X6 27-360 limits assumed)": "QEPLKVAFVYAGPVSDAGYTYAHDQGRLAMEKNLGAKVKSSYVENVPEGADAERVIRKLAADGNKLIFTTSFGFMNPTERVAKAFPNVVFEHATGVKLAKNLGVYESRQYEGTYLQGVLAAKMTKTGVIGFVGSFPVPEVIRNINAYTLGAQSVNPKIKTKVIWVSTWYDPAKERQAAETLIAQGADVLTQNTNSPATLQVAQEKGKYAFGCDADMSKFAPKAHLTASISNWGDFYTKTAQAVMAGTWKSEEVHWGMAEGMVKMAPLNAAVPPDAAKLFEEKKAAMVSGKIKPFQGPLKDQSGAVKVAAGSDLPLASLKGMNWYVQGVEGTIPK", "experiment": "Surface plasmon resonance (SPR) binding to immobilized AtzT, 1:1 steady-state affinity model", "key": {"[1]": {"conditions": "Biacore S200, CM5 chip, 293 K, HBS-P+ buffer with 2%(v/v) DMSO, mean ± standard deviation (n = 3)"}}, "note": "Where “and” joins values, the source holds several entries; their conditions need not be identical. Equal entries are not always repeated. Where two headings read alike, the source gives them in different places."}
{"molecule": "CCNc1nc(O)nc(NC(C)C)n1", "note": "[2-Hydroxyatrazine]", "values": [{"measurement": "fold tighter binding than atrazine", "setting": "2-hydroxyatrazine vs atrazine", "value": "~700 fold and > 600 fold"}, {"measurement": "Kd", "setting": "[1]", "value": "2.2 ± 0.2", "unit": "µM"}]}
{"molecule": "OB(O)c1ccc(I)cc1", "note": "[4-Iodophenylboronic acid]", "values": [{"measurement": "Kd", "setting": "[1]", "value": "5000 ± 1000", "unit": "µM"}]}
{"molecule": "Nc1ncnc2nc[nH]c12", "note": "[Adenine]", "values": [{"measurement": "Kd", "value": "~2.5", "unit": "µM"}, {"measurement": "Kd", "setting": "[1]", "value": "2.5 ± 0.3", "unit": "µM"}]}
{"molecule": "Nc1nc(N)nc(O)n1", "note": "[Ammeline]", "values": [{"measurement": "Kd", "setting": "[1]", "value": "0.36 ± 0.02", "unit": "µM"}, {"measurement": "fold difference in K D between ammeline and ammelide", "setting": "ammeline vs ammelide", "value": "> 250", "unit": "fold"}]}
{"molecule": "CCNc1nc(Cl)nc(NC(C)C)n1", "note": "[Atrazine]", "values": [{"measurement": "Kd", "value": "~1500", "unit": "µM"}, {"measurement": "Kd", "setting": "[1]", "value": "1500 ± 200", "unit": "µM"}]}
{"molecule": "O=C1CC(=O)NC(=O)N1", "note": "[Barbaturic acid]", "values": [{"measurement": "Kd", "setting": "[1]", "value": "> 8000", "unit": "µM"}]}
{"molecule": "CCC1(CC)C(=O)NC(=O)NC1=O", "note": "[Barbitone]", "values": [{"measurement": "Kd", "setting": "[1]", "value": "> 8000", "unit": "µM"}]}
{"molecule": "O=c1[nH]c(=O)[nH]c(=O)[nH]1", "note": "[Cyanuric acid]", "values": [{"measurement": "Kd", "setting": "[1]", "value": "340 ± 30", "unit": "µM"}]}
{"molecule": "Nc1cc[nH]c(=O)n1", "note": "[Cytosine]", "values": [{"measurement": "Kd", "setting": "[1]", "value": "800 ± 90", "unit": "µM"}]}
{"molecule": "Nc1nc2c(ncn2[C@@H]2O[C@H](COP(=O)(O)OP(=O)(O)OP(=O)(O)O)[C@@H](O)[C@H]2O)c(=O)[nH]1", "note": "[GTP]", "values": [{"measurement": "Kd", "setting": "[1]", "value": "> 8000", "unit": "µM"}]}
{"molecule": "Nc1nc2nc[nH]c2c(=O)[nH]1", "note": "[Guanine]", "values": [{"measurement": "Kd", "value": "~0.11", "unit": "µM"}, {"measurement": "Kd", "setting": "[1]", "value": "0.11 ± 0.02", "unit": "µM"}, {"measurement": "time in which the majority of the guanine dissociates from AtzT", "setting": "Supplementary Fig. S4", "value": "~20", "unit": "s"}]}
{"molecule": "Nc1nc(N)nc(N)n1", "note": "[Melamine]", "values": [{"measurement": "Kd", "setting": "[1]", "value": "> 400", "unit": "µM"}]}
{"molecule": "O=C(O)c1c(Br)c(Br)c(C(=O)O)c(Br)c1Br", "note": "[Tetrabromoterephthalic acid]", "values": [{"measurement": "Kd", "setting": "[1]", "value": "> 8000", "unit": "µM"}]}
{"molecule": "Cc1c[nH]c(=O)[nH]c1=O", "note": "[Thymine]", "values": [{"measurement": "Kd", "setting": "[1]", "value": "620 ± 40", "unit": "µM"}]}
{"molecule": "O=c1cc[nH]c(=O)[nH]1", "note": "[Uracil]", "values": [{"measurement": "Kd", "setting": "[1]", "value": "1600 ± 300", "unit": "µM"}]}
